Experimental data from US11434205B2, “Substituted imidazole carboxylate derivatives and the use thereof” (priority 2018, dated 2022).
Read-outs that look alike come from different tables or passages of the source.

Tests used:
rats [1] = assay: Loss of righting reflexes (LORR) assay in rats, ED50 by up and down method; assay type: in vivo, rat; settings: Rattus norvegicus, tail vein, class symbols
Procedure: The Anesthetic Activity of the Compounds was Assessed in Rats Using a Loss of Righting Reflexes (LORR) Assay
(§1) Adult male Sprague-Dawley rats (250-300 g) were selected for the experiment. […] The anesthesia effects of the compounds were assessed in rats using a LORR assay and a period >30 s was considered as an indicator of general anesthesia. Then the up and down method was used to determine 50% effective dose (ED50). The drugs were administered through the tail vein of rats in a volume of 0.6 mL and at a rate of 0.1 mL/s.

rats [2] = assay: Pharmacological characteristics at equivalent doses (2×ED50) in rats; settings: 2×ED50, tail vein; for Adverse reactions: Red urine (incidence): DMSO solution (DMSO alone 10/10); for Onset time: time of LORR
Procedure: Comparison of Pharmacological Characteristics of the Compounds at Equivalent Doses (2×ED50) in Rats
Adult male Sprague-Dawley rats (250-300 g) were selected for the experiment (n=8). […] The drugs were administered at a dose twice their ED50 through the tail vein of rats in a volume of 0.6 mL and at a rate of 0.1 mL/s. In addition, the time of LORR was recorded as the onset time of anesthesia. […] Furthermore, the duration of the pharmacological effects is sufficient to meet the time requirements for rapid induction of general anesthesia and for diagnostic examinations, some short invasive clinical examinations, or operations.

rats [3] = system: rats
Procedure: as §1

rats [4] = system: rats; remark: listed apart in the source
Procedure: Pharmacological Effects of the Compounds on Continuous Infusion in Rats
Adult male Sprague-Dawley rats with body weight ranging from 250 to 300 gm were selected for continuous infusion test. […] Time to recovery of righting reflex from stopping infusion, and time to fully awake from stopping infusion were recorded.

rats [5] = assay type: in vivo, rat; settings: rats of the MAP/HR figures, 2×ED50, tail vein
rats [6] = assay type: in vivo, rat; settings: rats of the MAP/HR figures, 2×ED50, tail vein; same value in min
Procedure: The Effects of the Compounds on the Circulatory Function were Measured in Rats Using a Small Animal Implanted Physiological Signal Telemetry System
The anesthetic activity of the compounds was assessed in rats using a LORR assay and the up and down method was used to determine ED50. […] A small animal implantable physiological signal telemetry system from DSI (Data Science International, Inc.) was used to measure the changes in heart rate (HR) and blood pressure in rats during 30 min after administration. Then mean arterial pressure (MAP) and HR were used as representative indicators to determine hemodynamic stability of the compounds of the present invention in rats.
A small animal implantable physiological signal telemetry system from DSI (Data Science International, Inc.) including implants (RATHD-521, DSI, United States), receiver boards (RPC-1, DSI, United States), signal conversion devices (DEM, DSI, USA), perfusion glue (DSI, USA), fibrin membrane (DSI, USA), etc.
First, animal models were established. A left ventricular catheter, an abdominal aortic catheter and ECG wires were placed into rats. At least one week after surgery, data were recorded.
Administration procedure: rats were put into a restraint device with a 20 G indwelling catheter placed into a lateral tail vein. After administration of 0.2 mL heparin, a pre-filled extension tube was attached and taped to the tail vein to secure the extension tube. Then the rats were removed from the restraint device to a cage before placing them together on the signal receiver. […] Finally, the pharmacological effects, adverse reactions, and behavioural manifestations of the rats were observed and recorded
Data collection: After setting the data collection parameters on the software, the power of the implant was turned on to start data collection. In this experiment, data recording frequency was set to 15 s. Data collection was continuously recorded for 30 min before and after administration of the drugs in rats. After data acquisition, the test was stopped.

[7] = system: secretion of corticosterone, H295R cell line; assay: cells; assay type: cell-based; settings: for EC50: read-out: EC50 (Corticosterone)
Procedure: (§2) The Effects of the Compounds on Adrenocortical Function In Vitro Test
(§3) Then secretion of the cortisol and corticosterone in the supernatant, was measured using HPLC-MS/MS method to determine whether the compounds of the present invention had adrenotoxic potential.

[8] = system: secretion of cortisol, H295R cell line; assay: cells; assay type: cell-based; settings: for EC50: read-out: EC50 (Cortisol)
Procedure: as §2, §3

[9] = continuous tail vein infusion at 2×MIR, LORR maintained 1 hour, Table E4
[10] = H295R cell line, 0.1-10000 nM, HPLC-MS/MS, Table E3
[11] = emulsion, continuous infusion at 2×MIR
[12] = continuous tail vein infusion at 2×MIR, LORR maintained 1 hour, Table D4
[13] = H295R cell line, 0.1-10000 nM, HPLC-MS/MS, Table D3

Compound	ED50 (rats [1]) [mg/kg]	Righting reflex duration (rats [2]) [min]	Adverse reactions: Red urine (incidence) (rats [2])	Onset time (rats [2]) [min]	Approximate therapeutic index (rats [3])	Minimal lethal dose (rats [3]) [mg/kg]	recovery time of the test animals' righting reflex (rats [5]) [s]	recovery time of the test animals' righting reflex (rats [6]) [min]	EC50 ([7]; Homo sapiens, NCI-H295R) [µM]	EC50 ([8]; Homo sapiens, NCI-H295R) [µM]	further results
C[C@H](c1ccccc1)n1cncc1C(=O)OCC1(C)CSC1 [Compound B8]	0.5 to 1	5.00 ± 1.25	Red urine (8/8)	0.13 ± 0.05	>10	>10					
C=C=CC1(SC(=O)c2cncn2[C@H](C)c2ccccc2)COC1 [Compound D33]	0.5 to 1	0.92 ± 0.33	Red urine (8/8)	0.71 ± 0.22	>10	>8					
CC#CC(C)OC(=O)c1cncn1[C@H](C)c1ccccc1 (stereo partly shown) [Compound D32]	0.1 to 0.5	2.14 ± 1.23	Red urine (8/8)	0.49 ± 0.23	>16	>5					Adverse reactions: Tongue stretching (incidence) (rats [2]): Tongue stretching (2/8),
C=C(C)CC1(OC(=O)c2cncn2[C@H](C)c2ccccc2)CCC1 [Compound D26]	0.1 to 0.5	1.36 ± 0.52	urine (8/8)	0.56 ± 0.19	>10	>4					Adverse reactions: Myoclonus (incidence) (rats [2]): Myoclonus (3/8), Red
[2H]C#CC(C)(C)OC(=O)c1cncn1[C@H](C)c1ccccc1 [Compound D16]	0.5 to 1	1.17 ± 0.98	Red urine (8/8)	0.36 ± 0.19	>12	>6					
C[C@H](c1ccccc1)n1c(Cl)nc(Cl)c1C(=O)OC1COC1 [Compound E132]	0.5 to 1	2.70 ± 1.15	urine (8/8)	0.18 ± 0.06	>14	>10					Adverse reactions: Restlessness (incidence) (rats [2]): (2/8), Red
C[C@H](c1ccccc1)n1cnc(F)c1C(=O)OC(C)(C)C [Compound E12]							214	3.57	> 10	> 10	Onset time (rats [4]; [9]): 2 to 3 min; Recovery time after stopping infusion (rats [4]; [9]): 11 to 23 min; Types and incidence of adverse reactions (rats [4]; [9]): Tremor (2/6); Corticosterone as an indicator to determine the presence of inhibition [7, 10]: 0; Cortisol as an indicator to determine the presence of inhibition [8, 10]: 0
C[C@H](c1ccccc1)n1cnc(F)c1C(=O)OC1CC1 [Compound E34]	0.1 to 0.5	1.78 ± 1.09	(8/8)	0.29 ± 0.20	>12	>2					Adverse reactions: Tongue stretching (incidence) (rats [2]): (1/8),
CCCC1(COC(=O)c2cncn2[C@H](C)c2ccccc2)COC1 [Compound B10]							81	1.35	> 1	> 1	Recovery time after stopping infusion (rats [4]; after 1 hour infusion at 2×MIR): 9 to 12 min; Adverse reactions: Tremor (incidence) (rats [4]; continuous infusion 2×MIR): Tremor (3/6); Onset time (rats [4]; [11]): 3 to 4 min; Corticosterone as an indicator to determine the presence of inhibition ([7]; H295R, Table B3): 0; Cortisol as an indicator to determine the presence of inhibition ([8]; H295R, Table B3): 0
C=CCC1(OC(=O)c2cncn2[C@H](C)c2ccccc2)CCC1 [Compound D12]	0.5 to 1	2.15 ± 1.03	Red urine (8/8)	0.32 ± 0.09	>14	>10					
C[C@H](c1ccccc1)n1cncc1C(=O)OC(C)(C)C#CC#CC(C)(C)O [Compound D38]							193	3.22	> 10	> 10	Onset time (rats [4]; [12]): 3 to 4 min; Recovery time after stopping infusion (rats [4]; [12]): 12 to 14 min; Types and incidence of adverse reactions (rats [4]; [12]): Tremor (5/6); Corticosterone as an indicator to determine the presence of inhibition [7, 13]: 0; Cortisol as an indicator to determine the presence of inhibition [8, 13]: 0
CCC1(OC(=O)c2cncn2[C@H](C)c2ccccc2)COC1 [Compound B18]							279	4.65	> 1	> 1	Recovery time after stopping infusion (rats [4]; after 1 hour infusion at 2×MIR): 15 to 18 min; Adverse reactions: Tremor (incidence) (rats [4]; continuous infusion 2×MIR): Tremor (4/6); Onset time (rats [4]; [11]): 3 to 4 min; Corticosterone as an indicator to determine the presence of inhibition ([7]; H295R, Table B3): 0; Cortisol as an indicator to determine the presence of inhibition ([8]; H295R, Table B3): 0
CC#CCOC(=O)c1c(C(F)(F)F)ncn1[C@H](C)c1ccccc1 [Compound E161]							140	2.33	> 10	> 10	Corticosterone as an indicator to determine the presence of inhibition [7, 10]: 0; Cortisol as an indicator to determine the presence of inhibition [8, 10]: 0
COCC1(CSC(=O)c2cncn2[C@H](C)c2ccccc2)CCC1 [Compound A28]							435	7.25	> 1	> 1	Corticosterone as an indicator to determine the presence of inhibition ([7]; H295R, Table A3): 0; Cortisol as an indicator to determine the presence of inhibition ([8]; H295R, Table A3): 0
CC(=O)C(C)(C)OC(=O)c1c(C(F)(F)F)ncn1[C@H](C)c1ccccc1 [Compound E160]							65	1.08	> 10	> 10	Corticosterone as an indicator to determine the presence of inhibition [7, 10]: 0; Cortisol as an indicator to determine the presence of inhibition [8, 10]: 0
C[C@H](c1ccccc1)n1cncc1C(=O)SCC1COC1 [Compound B29]							112	1.87	> 10	> 10	Recovery time after stopping infusion (rats [4]; after 1 hour infusion at 2×MIR): 8 to 10 min; Types and incidence of adverse reactions (rats [4]; continuous infusion 2×MIR, in words): No; Onset time (rats [4]; [11]): 2 to 3 min; Corticosterone as an indicator to determine the presence of inhibition ([7]; H295R, Table B3): 0; Cortisol as an indicator to determine the presence of inhibition ([8]; H295R, Table B3): 0
CC(OC(=O)c1c(F)ncn1C(C)c1ccccc1)=C1CCCC1=O (stereo not shown) [Compound E31]							105	1.75			Onset time (rats [4]; [9]): 3 to 4 min; Recovery time after stopping infusion (rats [4]; [9]): 8 to 11 min; Types and incidence of adverse reactions (rats [4]; [9]): Tremor (3/6); Corticosterone as an indicator to determine the presence of inhibition [7, 10]: 0; EC50 [7, 10]: > 10 µM; Cortisol as an indicator to determine the presence of inhibition [8, 10]: 0; EC50 [8, 10]: > 10 µM
